# Counter-ions that a name gives are not always drawn. Like-named read-outs stand apart in the source and are kept apart here.
# Tests used:
# Type in all cases: cell-based
# [1] = system: Pseudomonas aeruginosa (ATCC 27853); test: Minimum inhibitory concentration (MIC) assay, Example 33; settings: Pseudomonas aeruginosa
# Method in brief: (§1)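 CLSI broth microdilution; CAMHB; serial 2-fold dilutions; inoculum 0.5 McFarland (OD600 0.08-0.13), diluted 1:100 as 2× stock, added 1:2; 35° C incubation; MIC read by CLSI criteria.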
# [2] = system: Escherichia coli (ATCC 25922); test: as above; settings: for MIC: Escherichia coli
# Method in brief: as §1
# Pseudomonas aeruginosa = test: Extended time kill study, Example 34 (0 to 24 h)
# Method: (§2) Time kill studies. Strain suspensions were prepared as described above for the MIC test, and strain suspensions and compound solutions were mixed in the same volume. Samples were removed at specified times including 0 min, 30 sec, 1 min and 5 mins, were diluted in the test medium and streaked on agar. Colonies were counted after 24 to 48 hrs of incubation.
# (§3) The time kill studies of Example 33 were extended for five compounds (Nex-59, Nex-60, Nex-61, Nex-62, and Nex-88) using the same methods at longer time periods and at higher multiples of MIC. Nex-88 is a code number for DDAIP.HCl from a different supplier.
# Candida albicans = test: Extended time kill study, Example 34 (0 to 24 h)
# Method: as §2, §3
# Aspergillus niger = test: Extended time kill study, Example 34 (0 to 24 h)
# Method: as §2, §3
smiles,measurement,setting,value
"CCCCCCCCCCCCOC(=O)C(C)N(C)C (stereo not shown) [Nex-05, Dodecyl 2-(dimethylamino)propanoate hydrochloride]",MIC,"[1]; ATCC27853, Table 19 summary",6250 µg/mL
same,MIC,"[1]; ATCC27853, read-out: MIC P. aeruginosa, n = 1",6250 µg/mL
same,MIC,"[1]; ATCC27853, read-out: MIC P. aeruginosa, n = 2",6250 µg/mL
same,MIC,"[2]; ATCC25922, Table 19 summary of Example 33 and Example 35",3130 µg/mL
same,MIC,"[2]; ATCC25922, read-out: MIC E. coli, n = 1",3130 µg/mL
same,MIC,"[2]; ATCC25922, read-out: MIC E. coli, n = 2",3130 µg/mL
same,MIC E. coli,"[2]; n = 1, listed as Nex-88, hydrochloride",3130 µg/mL
same,"Viable counts, Pseudomonas aeruginosa time kill study","Pseudomonas aeruginosa; 1 × MIC, 1 h",<1 Log10 CFU/mL
same,"Viable counts, Pseudomonas aeruginosa time kill study","Pseudomonas aeruginosa; 1 × MIC, 2 h",<1 Log10 CFU/mL
same,"Viable counts, Pseudomonas aeruginosa time kill study","Pseudomonas aeruginosa; 1 × MIC, 4 h",<1 Log10 CFU/mL
same,"Viable counts, Pseudomonas aeruginosa time kill study","Pseudomonas aeruginosa; 1 × MIC, 6 h",<1 Log10 CFU/mL
same,"Viable counts, Pseudomonas aeruginosa time kill study","Pseudomonas aeruginosa; 1 × MIC, 24 h",<1 Log10 CFU/mL
same,"Viable counts, Pseudomonas aeruginosa time kill study","Pseudomonas aeruginosa; 1×MIC, time 0",5.30 Log10 CFU/mL
same,"Viable counts, Pseudomonas aeruginosa time kill study","Pseudomonas aeruginosa; 2 × MIC, 1 h",<1 Log10 CFU/mL
same,"Viable counts, Pseudomonas aeruginosa time kill study","Pseudomonas aeruginosa; 2 × MIC, 2 h",<1 Log10 CFU/mL
same,"Viable counts, Pseudomonas aeruginosa time kill study","Pseudomonas aeruginosa; 2 × MIC, 4 h",<1 Log10 CFU/mL
same,"Viable counts, Pseudomonas aeruginosa time kill study","Pseudomonas aeruginosa; 2 × MIC, 6 h",<1 Log10 CFU/mL
same,"Viable counts, Pseudomonas aeruginosa time kill study","Pseudomonas aeruginosa; 2 × MIC, 24 h",<1 Log10 CFU/mL
same,"Viable counts, Pseudomonas aeruginosa time kill study","Pseudomonas aeruginosa; 2 × MIC, time 0",5.22 Log10 CFU/mL
same,"Viable counts, Pseudomonas aeruginosa time kill study","Pseudomonas aeruginosa; 4 × MIC, 1 h",<1 Log10 CFU/mL
same,"Viable counts, Pseudomonas aeruginosa time kill study","Pseudomonas aeruginosa; 4 × MIC, 2 h",<1 Log10 CFU/mL
same,"Viable counts, Pseudomonas aeruginosa time kill study","Pseudomonas aeruginosa; 4 × MIC, 4 h",<1 Log10 CFU/mL
same,"Viable counts, Pseudomonas aeruginosa time kill study","Pseudomonas aeruginosa; 4 × MIC, 6 h",<1 Log10 CFU/mL
same,"Viable counts, Pseudomonas aeruginosa time kill study","Pseudomonas aeruginosa; 4 × MIC, 24 h",<1 Log10 CFU/mL
same,"Viable counts, Pseudomonas aeruginosa time kill study","Pseudomonas aeruginosa; 4 × MIC, time 0",5.26 Log10 CFU/mL
same,Viable counts in Log10 CFU/mL,"Candida albicans; 1 × MIC, 1 h",5.62 Log10 CFU/mL
same,Viable counts in Log10 CFU/mL,"Candida albicans; 1 × MIC, 2 h",5.60 Log10 CFU/mL
same,Viable counts in Log10 CFU/mL,"Candida albicans; 1 × MIC, 4 h",5.60 Log10 CFU/mL
same,Viable counts in Log10 CFU/mL,"Candida albicans; 1 × MIC, 6 h",6.02 Log10 CFU/mL
same,Viable counts in Log10 CFU/mL,"Candida albicans; 1 × MIC, 24 h",>6 Log10 CFU/mL
same,Viable counts in Log10 CFU/mL,"Candida albicans; 1 × MIC, 0 h",5.82 Log10 CFU/mL
same,Viable counts in Log10 CFU/mL,"Candida albicans; 2 × MIC, 1 h",4.99 Log10 CFU/mL
same,Viable counts in Log10 CFU/mL,"Candida albicans; 2 × MIC, 2 h",4.88 Log10 CFU/mL
same,Viable counts in Log10 CFU/mL,"Candida albicans; 2 × MIC, 4 h",4.62 Log10 CFU/mL
same,Viable counts in Log10 CFU/mL,"Candida albicans; 2 × MIC, 6 h",4.58 Log10 CFU/mL
same,Viable counts in Log10 CFU/mL,"Candida albicans; 2 × MIC, 24 h",2.57 Log10 CFU/mL
same,Viable counts in Log10 CFU/mL,"Candida albicans; 2 × MIC, 0 h",5.81 Log10 CFU/mL
same,Viable counts in Log10 CFU/mL,"Candida albicans; 4 × MIC, 1 h",3.95 Log10 CFU/mL
same,Viable counts in Log10 CFU/mL,"Candida albicans; 4 × MIC, 2 h",3.90 Log10 CFU/mL
same,Viable counts in Log10 CFU/mL,"Candida albicans; 4 × MIC, 4 h",<2.70 Log10 CFU/mL
same,Viable counts in Log10 CFU/mL,"Candida albicans; 4 × MIC, 6 h",<2.70 Log10 CFU/mL
same,Viable counts in Log10 CFU/mL,"Candida albicans; 4 × MIC, 24 h",<1 Log10 CFU/mL
same,Viable counts in Log10 CFU/mL,"Candida albicans; 4 × MIC, 0 h",5.79 Log10 CFU/mL
same,Viable counts in Log10 CFU/mL,"Aspergillus niger; 1 × MIC, 1 h",5.28 Log10 CFU/mL
same,Viable counts in Log10 CFU/mL,"Aspergillus niger; 1 × MIC, 2 h",4.78 Log10 CFU/mL
same,Viable counts in Log10 CFU/mL,"Aspergillus niger; 1 × MIC, 4 h",4.60 Log10 CFU/mL
same,Viable counts in Log10 CFU/mL,"Aspergillus niger; 1 × MIC, 6 h",4.30 Log10 CFU/mL
same,Viable counts in Log10 CFU/mL,"Aspergillus niger; 1 × MIC, 24 h",3.30 Log10 CFU/mL
same,Viable counts in Log10 CFU/mL,"Aspergillus niger; 1 × MIC, 0 h",5.41 Log10 CFU/mL
same,Viable counts in Log10 CFU/mL,"Aspergillus niger; 2 × MIC, 1 h",4.30 Log10 CFU/mL
same,Viable counts in Log10 CFU/mL,"Aspergillus niger; 2 × MIC, 2 h",4.70 Log10 CFU/mL
same,Viable counts in Log10 CFU/mL,"Aspergillus niger; 2 × MIC, 4 h",3 Log10 CFU/mL
same,Viable counts in Log10 CFU/mL,"Aspergillus niger; 2 × MIC, 6 h",4 Log10 CFU/mL
same,Viable counts in Log10 CFU/mL,"Aspergillus niger; 2 × MIC, 24 h",<2 Log10 CFU/mL
same,Viable counts in Log10 CFU/mL,"Aspergillus niger; 2 × MIC, 0 h",5.38 Log10 CFU/mL
same,Viable counts in Log10 CFU/mL,"Aspergillus niger; 4 × MIC, 1 h",4.48 Log10 CFU/mL
same,Viable counts in Log10 CFU/mL,"Aspergillus niger; 4 × MIC, 2 h",4 Log10 CFU/mL
same,Viable counts in Log10 CFU/mL,"Aspergillus niger; 4 × MIC, 4 h",3 Log10 CFU/mL
same,Viable counts in Log10 CFU/mL,"Aspergillus niger; 4 × MIC, 6 h",4 Log10 CFU/mL
same,Viable counts in Log10 CFU/mL,"Aspergillus niger; 4 × MIC, 24 h",<2 Log10 CFU/mL
same,Viable counts in Log10 CFU/mL,"Aspergillus niger; 4 × MIC, 0 h",5.50 Log10 CFU/mL
